{"source": "patent US12403121B2", "about": "“Anticancer rocaglamide derivatives” (priority 2018, dated 2025)", "key": {"Ewing sarcoma PDX": {"system": "Ewing sarcoma PDX", "assay": "Ewing sarcoma PDX model (NCH-EWS-2)", "format": "in vivo, NSG mouse", "details": "3 mg/kg IP every other day, four weeks, vs vehicle", "text": "To generate PDX models, the Nationwide Children's Hospital Institutional Review Board approved the Human Subjects Protocol for the acquisition of surgically-removed tumor specimens from patients and informed patient consents were obtained. Shortly after resection, fresh tumor tissues with their histological types confirmed by a specialized pathologist were placed in Dulbecco's-modified Eagle (DME) medium (Invitrogen) and brought to the research laboratory. A piece of tumor fragment was implanted subcutaneously on the dorsal right flank area in an eight-to-ten week-old immunodeficient mouse under anesthesia. Tumors were allowed to grow until established, at which time the established PDX tumors were repeatedly passed from one animal to the next or cryopreserved. For Roc treatment, actively-growing PDXs for a Ewing sarcoma (NCH-EWS-2), an osteosarcoma (NCH—OS-7), and an alveolar rhabdomyosarcoma (NCH-ARMS-2) were excised and cut into 5-mm pieces. Each tumor piece was re-implanted into an NSG mouse and tumor growth was monitored. Once noted, the tumor sizes in the axial plane at its greatest dimension (L) and the orthogonal short dimension (S) were measured twice weekly using a Fowler Ultra-Cal Electronic Caliper. Approximated tumor volumes were calculated using the formula V=(L×S^2)/2. […]"}, "[1]": {"system": "A673, TC32, 143B, MG-63, Saos2, OS17 and RD sarcoma cell lines", "assay": "Cell proliferation in Ewing sarcoma, osteosarcoma and rhabdomyosarcoma cell lines", "format": "cell-based", "details": "two Ewing sarcoma, four osteosarcoma, one rhabdomyosarcoma cell lines", "description": "The human MPNST cell lines, ST8814, STS26T, S462, T265, and luciferase-expressing ST8814-Luc, the human NF2-deficient meningioma cell line Ben-Men-1, the NJ2 mouse schwannoma cell line Sch10545, and primary human Schwann cells were propagated as previously described. Oblinger et al., Neuro-Oncol., 18:1265-1277 (2016). The Ewing sarcoma cell line A673 and the osteosarcoma cell lines, 143B and MG-63, were grown in Dulbecco's Modified Eagle's (DME) medium (Millipore-Sigma) supplemented with 10% fetal bovine serum (FBS; Atlanta Biological). The silvestrol-sensitive 697 and silvestrol-resistant 697-R pre-B acute lymphoblastic leukemia cells (Gupta et al., AAPS J., 13:357-364 (2011)), the Ewing sarcoma cell line TC32, the osteosarcoma cell lines, Saos2 and OS17, and the rhabdomyosarcoma cell line RD were cultivated in RPMI 1640 medium (Millipore-Sigma) plus 10% FBS.\nActively-growing cells were seeded in 96-well plates (Sarstedt) at 2,000 cells/well for Ben-Men-1 and RD cells, 30,000 cells/well for 697 and 697-R cells, and 4,000 cells/well for all other cell lines. The following day, cells were treated with various concentrations of each compound or and 0.05% of DMSO as the control for six days for MG-63 cells or three days for all remaining cell lines. Cell proliferation was assessed using resazurin assays and the IC50 value calculated. Cell cycle analysis was performed accordingly. Burns et al., Cancer Res., 73:792-803 (2013).\nSince MPNSTs comprise only ˜2% of all sarcomas (Farid et al. Oncologist, 19:193-201 (2014)), the inventors expanded their testing of Roc and DDR to three other more prevalent sarcomas particularly in children and young adults: Ewing sarcoma, osteosarcoma, and rhabdomyosarcoma."}, "[2]": {"system": "TC32 Ewing sarcoma, 143B osteosarcoma, and RD rhabdomyosarcoma cells", "assay": "Western blots of treated sarcoma cells", "format": "cell-based", "description": "FIGS. 7A-7C provide images showing DDR and Roc reduce multiple signaling proteins important for the growth and survival of sarcoma cells. Lysates prepared from TC32 Ewing sarcoma (A), 143B osteosarcoma (B), and RD rhabdomyosarcoma (C) cells were treated 1 and 2 days with the indicated concentrations of DDR or Roc and analyzed by Western blotting for the expression of various oncogenic driver proteins. GAPDH was used as a loading control.\nSubconfluent cells were treated with the indicated doses of Roc or DDR for 24-72 hours and then harvested in cell lysis buffer (Cell Signaling Technology) containing 1 mM phenylmethylsufonylfluoride and protease inhibitor cocktail (Sigma-Aldrich). The protein content in cleared lysates was quantitated using the microBCA assay (ThermoFisher). Equal amounts of protein were run in sodium dodecyl sulfate-polyacrylamide gels and electrotransferred onto Immobilon-FL PVDF membranes (Millipore). The antibodies used were directed against: MDR1/ABCB1 (#13978), insulin-like growth factor-1 receptor β subunit (IGF-1Rβ; #9750), AKT (#9272), ERK1/2 (#4695), glyceraldehyde-3-phosphate dehydrogenase (GAPDH; #5174), caspase-3 (#9662), caspase-7 (#9492), cleaved caspase-7 (#9491), poly(ADP-ribose) polymerase (PARP; #9532), cleaved PARP (#5625), and phospho-histone H2A.X (pH2A.X[Ser′^39]; #9718; all from Cell Signaling Technology), NKX2.2 (sc-514161), LSD1 (sc-136174), and survivin (sc-17779; Santa Cruz Biotechnology), and FLI1 (ab15289) and cleaved caspase-3 (CC3; ab32042; Abeam). Protein bands were detected using IRDye® infrared fluorescent dye-labeled secondary antibodies and scanning on an Odyssey CLx imaging system (LI-COR Biosciences) using the appropriate fluorescent channel at a resolution of 84 μm.\nTo further examine the molecular mechanisms underlying the antiproliferative effects of rocaglamides, the inventors treated TC32 Ewing sarcoma, 143B osteosarcoma, and RD rhabdomyosarcoma cells with 1- or 2-IC50 dose of DDR or rocaglamide for 1-2 days followed by Western blotting for several known drivers of cell survival and proliferation. […] They also observed reduction of the IGF-1Rβ levels in rocaglamide-treated MPNST cells. In addition, Roc and DDR decreased the levels of AKT, ERKs, cyclin D1 and survivin in treated TC32, 143B, and RD cells (FIG. 7). Intriguingly, the oncogenic fusion protein EWS-FLI1, which acts as an aberrant transcription factor in Ewing sarcoma, was not affected in Roc- and DDR-treated TC32 Ewing sarcoma cells (FIG. 7A). […] However, the expression of lysine demethylase 1 (LSD1), which modulates EWS-FLI1 transcriptional activity (Sankar et al., Oncogene, 32:5089-5100 (2013)), and NKX2.2, an EWS-FL11-regulated gene necessary for oncogenic transformation (Smith et al., Cancer Cell, 9:405-416 (2006)), were diminished by these rocaglamides in TC32 cells (FIG. 7A)."}, "[3]": {"assay": "Maximum tolerated dose of Roc in mice", "format": "in vivo", "details": "every other day"}}}
{"smiles": "COc1ccc([C@@]23Oc4cc(OC)cc(OC)c4[C@]2(O)[C@H](O)[C@H](C(=O)N(C)C)[C@H]3c2ccccc2)cc1", "note": "[Roc, rocaglamide]", "values": [{"measurement": "tumor growth inhibition", "setting": "Ewing sarcoma PDX", "result": "~90", "unit": "%"}, {"measurement": "activity against sarcoma cell lines", "setting": "[1]", "result": "highly active"}, {"measurement": "levels of the β subunit of IGF-1R", "setting": "[2]; 1- or 2-IC50 dose, 1-2 days, all three sarcoma cell lines", "result": "reliably reduced"}, {"measurement": "levels of AKT, ERKs, cyclin D1 and survivin", "setting": "[2]; TC32, 143B, and RD cells, 1- or 2-IC50 dose, 1-2 days", "result": "decreased"}, {"measurement": "EWS-FLI1 fusion protein level", "setting": "[2]; TC32 Ewing sarcoma cells", "result": "not affected"}, {"measurement": "expression of LSD1 and NKX2.2", "setting": "[2]; TC32 cells", "result": "diminished"}, {"measurement": "maximum tolerated dose (MTD)", "setting": "[3]; IP", "result": 4, "unit": "mg/kg"}, {"measurement": "maximum tolerated dose (MTD)", "setting": "[3]; oral gavage", "result": 1.2, "unit": "mg/kg"}]}
